# According to patent US20240197828A1, “Chimeric molecule to treat sepsis and other inflammatory conditions” (THE FEINSTEIN INSTITUTES FOR MEDICAL RESEARCH, priority 2022, published 2024):
# “Also recorded” adds a separate entry of the source. Residues, ends and D or L forms follow the SMILES beside them.
# Columns and labels:
# RAW264.7 cells = assay: eCIRP-induced cytokine release in RAW264.7 cells (ELISA of supernatants); type: cell-based, mouse; conditions: RAW264.7, rmCIRP 1 μg/mL, 4 hours, vs rmCIRP alone
# Protocol: FIG. 2. Effects of MOP peptides on TNFα levels. RAW264.7 macrophages were cultured and treated with either volume-equivalent PBS, recombinant murine (rm) CIRP (eCIRP; 1 μg/mL), or rmCIRP with each respective peptide (10 μg/mL). After 4 hours, cell supernatants were assessed for TNFα levels by ELISA. Experiments were performed 3 times, and all data were used for analysis. Data are expressed as mean±SEM and compared by one-way ANOVA and SNK test. *p<0.05 vs. PBS, #p<0.05 vs. eCIRP.
# FIG. 4. eCIRP-induced inflammation is attenuated by MOP3. RAW264.7 cells were treated according to respective groups: PBS (volume equivalent), rmCIRP (1 μg/mL), or rmCIRP with MOP3 at increasing doses. After 4 hours, cell supernatants were analyzed for TNFα levels by ELISA. Experiments were performed 3 times, and all data were used for analysis. Data are expressed as mean #SEM and compared by one-way ANOVA and SNK test. *p<0.05 vs. PBS, #p<0.05 vs. eCIRP.
# (§1) Computational modeling was used to determine the likely domain of MFG-E8's binding to eCIRP. The known amino acid (AA) sequence of this domain was used to develop and test potential therapeutic peptides. An MFG-E8 derived oligopeptide, MOP3, was developed based on 15 AA from MFG-E8 discoidin 2 domain (mimicking MFG-E8's C-terminal) and tagged with the 3 AA, RGD, (mimicking MFG-E8's binding capacity for the integrin receptor at the N-terminal). Binding of MOP3 to CIRP was quantified using Surface Plasmon Resonance (SPR) analysis. Macrophages (RAW264.7 cells) were treated with FITC-recombinant mouse (rm)-CIRP or co-incubated MOP3 and FITC-rmCIRP with and without a. Br-integrin Ab. After 1 h, cells were fixed and analyzed for intracellular FITC-rmCIRP by flow cytometry. Macrophages were stimulated with rmCIRP or co-incubated mixture of MOP3 and rmCIRP. After 4 h, cell culture supernatants were analyzed for inflammatory cytokine, TNFα.
# Mouse macrophage cell line, RAW264.7 cells were obtained from American Type Culture Collection (ATCC) and cultured in DMEM media with 10% FBS, 1% penicillin and streptomycin, and 1% glutamine. Cells were kept in 37° C. incubator under humidified conditions containing 5% CO2. […]
# The mouse macrophage cell culture supernatants were analyzed for cytokine levels using ELISA kits (BD Biosciences, CA). […] TNF-α and IL-6 levels were measured in cell supernatants by ELISA in accordance with respective manufacturers' instructions (BD Biosciences, CA). Blood was collected, centrifuged at 4,000 RPM for 10 minutes, and sera was separated and analyzed for cytokine levels using ELISA kits (BD Biosciences, CA). TNF-α and IL-6 levels in the serum were measured by ELISA in accordance with respective manufacturers' instructions.
# RAW264.7 macrophages = assay: Intracellular uptake of FITC-rmCIRP by macrophages (flow cytometry, confocal microscopy); type: cell-based, mouse; conditions: for intracellular FITC-rmCIRP uptake (flow cytometry): RAW264.7, FITC-rmCIRP 1 μg/mL co-incubated with test substance (peptide 10 μg/mL), 1 hour, vs FITC-rmCIRP alone
# Protocol: FIG. 3. Effects of MOP peptides MOP-3, MOP-8 and MOP-14 on eCIRP. Flow cytometry experiment whereby RAW264.7 macrophages were treated for 1 hour according to respective group: PBS (volume-equivalent), FITC-rmCIRP (1 μg/mL), or a mixture of FITC-rmCIRP (1 μg/mL) with each respective peptide (10 μg/mL) after co-incubating for 30 minutes. Intracellular FITC-rmCIRP was analyzed by flow cytometry. Median fluorescence intensity (MFI) reported as percentage relative to PBS-treated RAW264.7 cells. Data from two independent experiments are expressed as mean±SEM and compared by one-way ANOVA and SNK test. *p<0.05 vs. PBS, #p<0.05 vs. eCIRP.
# as §1
# Mouse macrophage cell line, RAW264.7 cells were obtained from American Type Culture Collection (ATCC) and cultured in DMEM media with 10% FBS, 1% penicillin and streptomycin, and 1% glutamine. Cells were kept in 37° C. incubator under humidified conditions containing 5% CO2.
# rmCIRP was labeled using a FITC Conjugation Kit (Abcam, ab188285), and rmMFG-E8 was labeled using Alexa Fluor Conjugation Kit (Abcam, ab269821), both according to respective manufacturer's instructions.
# In order to visualize cellular uptake, we initially utilized TRITC-BSA as an internal probe, as BSA is taken up into cells primarily by endocytosis and retained intracellularly after fixation (27, 28). For further visualization of intracellular localization, we utilized LAMP1 primary antibody (as it is distributed among endolysosomal organelles and serves as a marker for lysosomal compartments) (29), and utilized lysotracker in live cell experiments (as it allows for imaging of dynamics of lysosome vesicle movements) (30). RAW264.7 cells were treated in various conditions with rmCIRP, rmMFG-E8, and inhibitory antibody against auß3-integrin (Bioss antibodies, bs-1310R) for 4 hours. Cells were fixed with 4% paraformaldehyde (PFA), washed with 1×PBS, permeabilized using 0.3% Triton x100, and blocked using 5% BSA 100 mM Glycine in PBS prior to primary antibody treatment. After incubation with secondary antibodies, cells were washed and mounted with ProLong Gold antifade reagent (Invitrogen). For live cell imaging, cells remained in treatment conditions and were imaged under CO2. Staining procedures were performed according to the manufacturers' instructions utilizing respective fluorescent dyes and probes. For all imaging, confocal microscopy images were obtained using a Zeiss LSM880 confocal microscope equipped with a 63× objective. Images were quantified and analyzed using Image J, FIJI.(31) Flow cytometry.
# To detect changes in internalized eCIRP in the presence of MFG-E8, RAW264.7 cells were seeded in 12-well plates (approximately 3×10^5 cells/well) and were treated with FITC-eCIRP. Treatment groups consisted of FITC-eCIRP, FITC-eCIRP with MFG-E8, FITC-eCIRP with MFG-E8 and αvβ3-integrin antibody (0.5 μg/mL), or FITC-eCIRP with MFG-E8 and IgG isotype (0.5 μg/mL). Similar experiments were conducted with MOP3 instead of MFG-E8 in parallel groups. […]
compound,measurement,setting,value
"CC(C)C[C@H](NC(=O)[C@H](CC(N)=O)NC(=O)[C@H](Cc1c[nH]c2ccccc12)NC(=O)[C@@H](NC(=O)[C@H](CCCCN)NC(=O)[C@H](Cc1ccc(O)cc1)NC(=O)[C@H](CO)NC(=O)[C@H](CO)NC(=O)[C@H](CO)NC(=O)[C@H](CC(=O)O)NC(=O)CNC(=O)[C@@H](N)CCCNC(=N)N)[C@@H](C)O)C(=O)N[C@@H](CCCNC(=N)N)C(=O)N[C@@H](C)C(=O)N[C@@H](Cc1ccccc1)C(=O)NCC(=O)N[C@@H](Cc1c[nH]c2ccccc12)C(=O)N[C@@H](Cc1ccc(O)cc1)C(=O)O [MOP3, RGDSSSYKTWNLRAFGWY] (H-RGDSSSYKTWNLRAFGWY-OH; N-terminus and C-terminus assumed)",TNFα levels in cell supernatants,RAW264.7 cells,strong inhibitory effect; also recorded: significantly decreased TNFα levels
same,TNFα levels in cell supernatants,RAW264.7 cells; listed as peptide-3,capable of attenuating TNFα release
same,intracellular FITC-rmCIRP uptake (flow cytometry),RAW264.7 macrophages,increased intracellular fluorescence; also recorded: significantly increased intracellular rmCIRP uptake
same,intracellular FITC-rmCIRP uptake (flow cytometry),RAW264.7 macrophages; listed as peptide-3,could increase intracellular uptake of FITC-eCIRP
same,intracellular FITC-rmCIRP uptake with αvβ3-integrin blocking antibody (flow cytometry),"RAW264.7 macrophages; RAW264.7, αvβ3-integrin antibody 0.5 μg/mL",prevented
